For the first test, the target named is T1, NK1 -receptor (substance P-receptor) (Homo sapiens, UniProt P25103).
T1 construct: intact human lymphoblastoma cells (IM-9) which express NK1 -receptors; endogenous in cells; host or cells: IM-9 human lymphoblastoma cells
T1 sequence (P25103 whole entry): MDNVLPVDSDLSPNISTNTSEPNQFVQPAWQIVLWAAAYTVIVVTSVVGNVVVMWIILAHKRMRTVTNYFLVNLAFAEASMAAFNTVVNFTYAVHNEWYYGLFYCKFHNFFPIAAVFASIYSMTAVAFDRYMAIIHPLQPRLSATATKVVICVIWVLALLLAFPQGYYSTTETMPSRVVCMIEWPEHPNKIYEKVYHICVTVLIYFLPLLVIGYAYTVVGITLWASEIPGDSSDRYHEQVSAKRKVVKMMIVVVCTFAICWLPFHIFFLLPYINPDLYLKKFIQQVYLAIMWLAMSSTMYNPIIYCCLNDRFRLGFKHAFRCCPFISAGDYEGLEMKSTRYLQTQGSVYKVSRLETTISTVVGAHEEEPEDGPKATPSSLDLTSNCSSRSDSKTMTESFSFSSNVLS
Put plainly: NK1-receptor affinity: displacement of 125I labelled substance P on intact human lymphoblastoma cells (IM-9). It is filed as binding. As to conditions: Ki, intact human lymphoblastoma cells (IM-9) expressing NK1-receptors. How it is done:
The receptor affinity for the NK1 -receptor (substance P-receptor) was determined on intact human lymphoblastoma cells (IM-9) which express NK1 -receptors, and the displacement of ^125 I labelled substance P was measured.
For orientation: Displacement assays read how much labelled ligand stays bound in the presence of the test substance.
As a reminder, the Ki is a dissociation constant, usually derived from enzyme kinetics or from competition with a known ligand. Consider `COc1ccccc1C(CNC(=O)Cc1ccc(Cl)cc1)N1CCN(C2CCCCC2)CC1` (stereo not drawn) [Example 61, N-[2-(2-Methoxyphenyl)-2-(4-cyclohexylpiperazine-1-yl)-ethyl]-2-(4-chlorophenyl)-acetamide], for which the Ki came out at 851 nM.

The test is the same for the next values; noted with them: intact human lymphoblastoma cells (IM-9) expressing NK1-receptors, read-out: Ki.
As for `COc1ccccc1C(CNC(=O)Nc1cc(C(F)(F)F)cc(C(F)(F)F)c1)N1CCC(N2CCCCC2)CC1` (stereo not drawn) [Example 177, N-3,5-Bistrifluoromethylphenyl-N'-[2-(2-methoxyphenyl)-2-(4-piperidin-1-yl)-piperidin-1-yl-ethyl]-urea], the Ki turned out to be 10 nM.
On the same count and under the same terms, with `CN1CCN(C(CNCc2cc(C(F)(F)F)cc(C(F)(F)F)c2)c2ccccc2)CC1` (stereo not drawn) [Example 30, 3,5-Bistrifluoromethylbenzyl-[2-phenyl-2-(4-methylperazine-1-yl)-ethyl]-amine] the figure was 90 nM.
The same measure, in the same setting: with `COc1ccccc1C(CNC(=O)c1cc(C(F)(F)F)cc(C(F)(F)F)c1)N1CCN(C2CCCCC2)CC1` (stereo not drawn) [Example 58, N-[2-(2-Methoxyphenyl)-2-(4-cyclohexylpiperazine-1-yl)-ethyl]-3,5-bistrifluoromethylbenzamide] the figure was 23 nM; with `COc1ccccc1C(CNCc1cc(C(F)(F)F)cc(C(F)(F)F)c1)N1CCN(c2cccc(C)c2C)CC1` (stereo not drawn) [Example 20, 3,5-Bistrifluoromethylbenzyl-[2-(2-methoxyphenyl)-2-(4-(2,3-dimethylphenyl)-piperazine-1-yl)-ethyl]-amine], 520 nM.
Same read-out and setting: the same measure for `O=C(NCC(c1ccccc1)N1CCN(c2ccccc2)CC1)Nc1cc(C(F)(F)F)cc(C(F)(F)F)c1` (stereo not drawn) [Example 123, N-3,5-Bistrifluoromethylphenyl-N'-[2-phenyl-2-(4-phenylpiperazine-1-yl)-ethyl]-urea]: 600 nM; for `COc1ccccc1C(CNC(=O)Nc1cc(C(F)(F)F)cc(C(F)(F)F)c1)N1CCN(c2ccc3ccccc3n2)CC1` (stereo not drawn) [Example 158, N-3,5-Bistrifluoromethylphenyl-N'-[2-(2-methoxyphenyl)-2-(4-(2-quinolinyl)piperazine-1-yl)-ethyl]-urea]: 905 nM; for `COc1ccccc1C(CNC(=O)Nc1cc(C(F)(F)F)cc(C(F)(F)F)c1)N1CCN(CCc2ccccc2)CC1` (stereo not drawn) [Example 150, N-3,5-Bistrifluoromethyl-phenyl-phenyl-N'-[2-(2-methoxyphenyl-2-(4-2-phenylethyl)-piperazine-1-yl)-ethyl]-urea]: 717 nM.
With `FC(F)(F)c1cc(CNCC(c2ccc(Cl)c(Cl)c2)N2CCN(C3CCCCC3)CC2)cc(C(F)(F)F)c1` (stereo not drawn) [Example 49, 3,5-Bistrifluoromethylbenzyl-[2-(3,4-dichlorophenyl)-2-(4-cyclohexylpiperazine-1-yl]-ethyl]-amine], the Ki came to 37 nM.
With `COc1ccccc1C(CNCc1cc(C(F)(F)F)cc(C(F)(F)F)c1)N1CCN(c2ccc3ccccc3n2)CC1` (stereo not drawn) [Example 29, 3,5-Bistrifluoromethylbenzyl-[2-(2-methoxyphenyl)-2-(4-(2-quinolinyl)-piperazine-1-yl)-ethyl]-amine], the inhibitory constant (Ki) amounted to 119 nM.
On to `COc1ccccc1C(CNCc1cc(C(F)(F)F)cc(C(F)(F)F)c1)N1CCN(C)CC1` (stereo not drawn) [Example 31, 3,5-Bistrifluoromethylbenzyl-[2-(2-methoxyphenyl)-2-(4-methylpiperazine-1-yl)-ethyl]-amine], for which the Ki is 93 nM.
With `COc1ccccc1C(CNC(=O)Nc1cc(C(F)(F)F)cc(C(F)(F)F)c1)N1CCC(Cc2ccccc2)CC1` (stereo not drawn) [Example 175, N-3,5-Bistrifluoromethylphenyl-N'-[2-(2-methoxyphenyl)-2-(4-benzylpiperidin-1-yl)-ethyl]-urea], the inhibition constant Ki was 230 nM.
On the same count and under the same terms, the same measure for `COc1ccccc1C(CNC(=O)Nc1cc(C(F)(F)F)cc(C(F)(F)F)c1)N1CCCC(C)C1` (stereo not drawn) [Example 169]: 888 nM; for `COc1ccccc1C(CNCCc1cc(C(F)(F)F)cc(C(F)(F)F)c1)N1CCCCC1` (stereo not drawn) [Example 79, 2-(3,5-Bistrifluoromethylphenyl)-2'-(2-methoxyphenyl)-2'-piperidine-1-yl-diethylamine]: 46 nM.
As to `COc1ccccc1C(CNC(=O)Nc1cc(C(F)(F)F)cc(C(F)(F)F)c1)N1CCC(C2CCCCC2)CC1` (stereo not drawn) [Example 171, N-3,5-Bistrifluoromethylphenyl-N'-[2-(2-methoxyphenyl)-2-(4-cyclohexylpiperidin-1-yl)-ethyl]-urea], the Ki was 898 nM.
Same read-out and setting: with `COc1ccccc1C(CNC(=O)c1cc(C(F)(F)F)cc(C(F)(F)F)c1)N1CCCCC1` (stereo not drawn) [Example 75, N-[2-(2-Methoxyphenyl)-2-piperidin-1-yl-ethyl]-3,5-bistrifluoromethylbenzamide] the figure was 700 nM.
The same measure, in the same setting: with `COc1ccccc1NC(=O)NCC(c1ccccc1)N1CCN(C2CCCCC2)CC1` (stereo not drawn) [Example 114, N-2-Methoxyphenyl-N'-[2-phenyl-2-(4-cyclohexylpiperazine-1-yl)-ethyl]-urea] the figure was 490 nM; with `COc1ccccc1C(CNC(=O)Nc1cc(C(F)(F)F)cc(C(F)(F)F)c1)N1CCN(C2CCCCC2)CC1` (stereo not drawn) [Example 116, N-3,5-Bistrifluoromethylphenyl-N'-[2-(2-methoxyphenyl)-2-(4-cyclohexylpiperazine-1-yl)-ethyl]-urea], 24 nM; with `COc1ccccc1C(CNCc1cc(C(F)(F)F)cc(C(F)(F)F)c1)N1CCN(C2CCCCCC2)CC1` (stereo not drawn) [Example 53, 3,5-Bistrifluoromethylbenzyl-[2-(2-methoxyphenyl)-2-(4-cycloheptylpiperazine-1-yl)-ethyl]-amine], 5 nM.
On the same count and under the same terms, with `COc1ccccc1C(CNC(=O)Nc1cc(C(F)(F)F)cc(C(F)(F)F)c1)N1CCN(C2CCCC2)CC1` (stereo not drawn) [Example 111, N-3,5-Bistrifluoromethylphenyl-N'-[2-(2-methoxyphenyl)-2-(4-cyclopentylpiperazine-1-yl)-ethyl]-urea] the figure was 12 nM.
Regarding `O=C(NCC(c1ccccc1)N1CCN(C2CCCCC2)CC1)Nc1ccccc1` (stereo not drawn) [Example 112, N-Phenyl-N'-[2-phenyl-2-(4-cyclohexylpiperazine-1-yl)-ethyl]-urea], the Ki was determined as 1000 nM.
